Experimental data: patent publication US6503942B2, “Ethers of O-Desmethyl venlafaxine” (Wyeth, priority 1999, dated 2003)

- melting point: 112 to 113 °C
SMILES: CN(C)CC(c1ccc(OCOC(=O)C(C)(C)C)cc1)C1(O)CCCCC1.O=C(O)/C=C\C(=O)O (stereo not shown) [Example 5, {4-[2-(Dimethylamino)-1-(1-hydroxycyclohexyl)ethyl]phenoxy}methyl Pivalate Maleate Salt]
